# Measured values: paper PMC7531004, “Discovery of gramicidin A analogues with altered activities by multidimensional screening of a one-bead-one-compound library” (Nature Communications, 2020)
# Where a SMILES comes first, the peptide text is derived from it. [ ]: non-standard residue; d: D form. The star is where a group is joined. NHCH2CH2OH = OCCN*; For = O=C*
# What was measured:
# [1] = H+/Na+ transport assay of bead-derived peptides (one-point); assay type: biochemical; design: key: relative activity; mean of two control wells = 1.00; conditions: bead-derived peptide solution, EYPC/EYPG LUVs;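 further: relative to parent gramicidin A activity set to 1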
# Procedure, shortened: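 Miniaturized 96-well format. LUVs with entrapped pyranine (1.0 mM) were exposed to peptide for 30 min at RT. Intensities were expressed relative to full lysis by Triton X-100 and no treatment, with control-well mean = 1.00.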
# [2] = tested on: P388 mouse leukemia cells; conditions: 92 h
# Procedure, shortened: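 First, library peptide stocks are diluted 250-fold in RPMI1640 with 10% heat-inactivated FBS. Next, they are mixed with P388 cells to give 1 × 10^4 cells/mL and incubated 92 h at 37 °C, 5% CO2. Finally, viability (%) is scored by WST-1 absorbance at 415 nm.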
# [3] = tested on: Streptococcus pyogenes SSI-9; test: Antibacterial activity assay of bead-derived peptides (three concentrations); assay type: cell-based; design: key: +++: inhibition by the 640-fold diluted peptide solution; ++: inhibition by the 160-fold diluted solution; +: inhibition by the 40-fold diluted solution; -: no inhibition; conditions: S. pyogenes, bead-derived peptide solution, three concentrations
# Procedure, shortened: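 Three stock dilutions per peptide (none, 4-fold, 16-fold in DMSO) are screened in 96-well format. The medium is blood-supplemented cation-adjusted MHB, inoculated with 2 × 10^5 CFU S. pyogenes SSI-9. Growth is read as cell precipitation at 18 h, 37 °C.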
SMILES,H+/Na+ transport activity normalized against the value of 1 (1.00) [1],cell viability/% [2],antibacterial activity [3]
CNC(=O)C[C@@H](NC(=O)[C@H](C)NC(=O)[C@@H](CC(C)C)NC(=O)[C@H](C)NC(=O)CNC(=O)[C@@H](NC=O)C(C)C)C(=O)N[C@H](C(=O)N[C@@H](C(=O)N[C@@H](Cc1c[nH]c2ccccc12)C(=O)N[C@H](CC(C)C)C(=O)N[C@@H](Cc1c[nH]c2ccccc12)C(=O)N[C@@H](C(=O)N[C@@H](Cc1c[nH]c2ccccc12)C(=O)N[C@H](CC(C)C)C(=O)N[C@@H](Cc1c[nH]c2ccccc12)C(=O)NCCO)C(C)C)C(C)C)C(C)C [compound 8265] (For-VGA[dL]A[dD](NHMe)V[dV]W[dL]W[dV]W[dL]W-NHCH2CH2OH),1.12,68.3%,-
CNC(=O)C[C@@H](NC(=O)[C@@H](NC(=O)[C@H](NC(=O)[C@H](C)NC(=O)[C@H](NC(=O)[C@H](C)NC(=O)CNC(=O)[C@@H](NC=O)C(C)C)C(C)C)C(C)C)C(C)C)C(=O)N[C@@H](Cc1c[nH]c2ccccc12)C(=O)N[C@H](CC(C)C)C(=O)N[C@@H](Cc1c[nH]c2ccccc12)C(=O)N[C@H](CC(C)C)C(=O)N[C@@H](Cc1c[nH]c2ccccc12)C(=O)N[C@@H](C(=O)N[C@@H](Cc1c[nH]c2ccccc12)C(=O)NCCO)C(C)C [compound 12373] (For-VGA[dV]A[dV]V[dD](NHMe)W[dL]W[dL]W[dV]W-NHCH2CH2OH),1.04,100.0%,-
CNC(=O)C[C@@H](NC(=O)[C@H](Cc1c[nH]c2ccccc12)NC(=O)[C@@H](CC(C)C)NC(=O)[C@@H](NC(=O)[C@@H](CC(C)C)NC(=O)[C@H](C)NC(=O)[C@H](NC(=O)[C@H](C)NC(=O)CNC(=O)[C@@H](NC=O)C(C)C)C(C)C)C(C)C)C(=O)N[C@@H](Cc1c[nH]c2ccccc12)C(=O)N[C@@H](C(=O)N[C@@H](Cc1c[nH]c2ccccc12)C(=O)N[C@@H](C(=O)N[C@@H](Cc1c[nH]c2ccccc12)C(=O)NCCO)C(C)C)C(C)C [compound 3144] (For-VGA[dV]A[dL]V[dL]W[dD](NHMe)W[dV]W[dV]W-NHCH2CH2OH),1.01,100.0%,-
CNC(=O)C[C@@H](NC(=O)[C@@H](NC(=O)[C@H](NC(=O)[C@H](C)NC(=O)[C@H](NC(=O)[C@H](C)NC(=O)CNC(=O)[C@@H](NC=O)C(C)C)C(C)C)C(C)C)C(C)C)C(=O)N[C@@H](Cc1c[nH]c2ccccc12)C(=O)N[C@H](CC(C)C)C(=O)N[C@@H](Cc1c[nH]c2ccccc12)C(=O)N[C@H](CC(C)C)C(=O)N[C@@H](Cc1c[nH]c2ccccc12)C(=O)N[C@H](CC(C)C)C(=O)N[C@@H](Cc1c[nH]c2ccccc12)C(=O)NCCO [compound 2218] (For-VGA[dV]A[dV]V[dD](NHMe)W[dL]W[dL]W[dL]W-NHCH2CH2OH),1.32,100.0%,-
CC(C)C[C@@H](NC(=O)[C@H](C)NC(=O)CNC(=O)[C@@H](NC=O)C(C)C)C(=O)N[C@@H](C)C(=O)N[C@@H](C(=O)N[C@H](C(=O)N[C@@H](C(=O)N[C@@H](Cc1c[nH]c2ccccc12)C(=O)N[C@@H](C(=O)N[C@@H](Cc1c[nH]c2ccccc12)C(=O)N[C@@H](C(=O)N[C@@H](Cc1c[nH]c2ccccc12)C(=O)N[C@@H](C(=O)N[C@@H](Cc1c[nH]c2ccccc12)C(=O)NCCO)C(C)C)C(C)C)C(C)C)C(C)C)C(C)C)C(C)C [compound 9992] (For-VGA[dL]A[dV]V[dV]W[dV]W[dV]W[dV]W-NHCH2CH2OH),1.23,100.0%,+
CC(C)C[C@@H](NC(=O)[C@H](C)NC(=O)[C@H](NC(=O)[C@H](C)NC(=O)CNC(=O)[C@@H](NC=O)C(C)C)C(C)C)C(=O)N[C@H](C(=O)N[C@H](CC(C)C)C(=O)N[C@@H](Cc1c[nH]c2ccccc12)C(=O)N[C@H](CC(C)C)C(=O)N[C@@H](Cc1c[nH]c2ccccc12)C(=O)N[C@@H](C(=O)N[C@@H](Cc1c[nH]c2ccccc12)C(=O)N[C@@H](C(=O)N[C@@H](Cc1c[nH]c2ccccc12)C(=O)NCCO)[C@H](C)O)C(C)C)C(C)C [compound 5370] (For-VGA[dV]A[dL]V[dL]W[dL]W[dV]W[dT]W-NHCH2CH2OH),1.18,100.0%,++
CC(C)C[C@@H](NC(=O)[C@H](C)NC(=O)[C@H](NC(=O)[C@H](C)NC(=O)CNC(=O)[C@@H](NC=O)C(C)C)[C@H](C)O)C(=O)N[C@H](C(=O)N[C@H](CC(C)C)C(=O)N[C@@H](Cc1c[nH]c2ccccc12)C(=O)N[C@@H](C(=O)N[C@@H](Cc1c[nH]c2ccccc12)C(=O)N[C@H](CC(C)C)C(=O)N[C@@H](Cc1c[nH]c2ccccc12)C(=O)N[C@@H](C(=O)N[C@@H](Cc1c[nH]c2ccccc12)C(=O)NCCO)C(C)C)[C@H](C)O)C(C)C [compound 1284] (For-VGA[dT]A[dL]V[dL]W[dT]W[dL]W[dV]W-NHCH2CH2OH),1.06,71.2%,-
CC(C)C[C@@H](NC(=O)[C@H](Cc1c[nH]c2ccccc12)NC(=O)[C@H](NC(=O)[C@H](Cc1c[nH]c2ccccc12)NC(=O)[C@H](NC(=O)[C@@H](NC(=O)[C@H](NC(=O)[C@H](C)NC(=O)[C@H](NC(=O)[C@H](C)NC(=O)CNC(=O)[C@@H](NC=O)C(C)C)C(C)C)C(C)C)C(C)C)C(C)C)C(C)C)C(=O)N[C@@H](Cc1c[nH]c2ccccc12)C(=O)N[C@@H](C(=O)N[C@@H](Cc1c[nH]c2ccccc12)C(=O)NCCO)C(C)C [compound 5678] (For-VGA[dV]A[dV]V[dV]W[dV]W[dL]W[dV]W-NHCH2CH2OH),1.11,93.2%,++
CC(C)C[C@@H](NC(=O)[C@H](C)NC(=O)CNC(=O)[C@@H](NC=O)C(C)C)C(=O)N[C@@H](C)C(=O)N[C@H](CC(C)C)C(=O)N[C@H](C(=O)N[C@H](CC(C)C)C(=O)N[C@@H](Cc1c[nH]c2ccccc12)C(=O)N[C@H](CC(C)C)C(=O)N[C@@H](Cc1c[nH]c2ccccc12)C(=O)N[C@@H](C(=O)N[C@@H](Cc1c[nH]c2ccccc12)C(=O)N[C@@H](C(=O)N[C@@H](Cc1c[nH]c2ccccc12)C(=O)NCCO)C(C)C)[C@H](C)O)C(C)C [compound 12989] (For-VGA[dL]A[dL]V[dL]W[dL]W[dT]W[dV]W-NHCH2CH2OH),1.16,100.0%,+
CC(C)C[C@@H](NC(=O)[C@H](Cc1c[nH]c2ccccc12)NC(=O)[C@@H](CC(C)C)NC(=O)[C@H](Cc1c[nH]c2ccccc12)NC(=O)[C@@H](CC(C)C)NC(=O)[C@H](Cc1c[nH]c2ccccc12)NC(=O)[C@H](NC(=O)[C@@H](NC(=O)[C@H](NC(=O)[C@H](C)NC(=O)[C@H](NC(=O)[C@H](C)NC(=O)CNC(=O)[C@@H](NC=O)C(C)C)C(C)C)C(C)C)C(C)C)C(C)C)C(=O)N[C@@H](Cc1c[nH]c2ccccc12)C(=O)NCCO [compound 3311] (For-VGA[dV]A[dV]V[dV]W[dL]W[dL]W[dL]W-NHCH2CH2OH),1.14,3.3%,++
CC(C)C[C@@H](NC(=O)[C@H](C)NC(=O)[C@H](NC(=O)[C@H](C)NC(=O)CNC(=O)[C@@H](NC=O)C(C)C)C(C)C)C(=O)N[C@H](C(=O)N[C@H](CC(C)C)C(=O)N[C@@H](Cc1c[nH]c2ccccc12)C(=O)N[C@@H](C(=O)N[C@@H](Cc1c[nH]c2ccccc12)C(=O)N[C@@H](C(=O)N[C@@H](Cc1c[nH]c2ccccc12)C(=O)N[C@H](CC(C)C)C(=O)N[C@@H](Cc1c[nH]c2ccccc12)C(=O)NCCO)C(C)C)[C@H](C)O)C(C)C [compound 7325] (For-VGA[dV]A[dL]V[dL]W[dT]W[dV]W[dL]W-NHCH2CH2OH),1.04,82.2%,-
CC(C)C[C@@H](NC(=O)[C@H](Cc1c[nH]c2ccccc12)NC(=O)[C@H](NC(=O)[C@H](Cc1c[nH]c2ccccc12)NC(=O)[C@H](NC(=O)[C@H](Cc1c[nH]c2ccccc12)NC(=O)[C@H](NC(=O)[C@@H](NC(=O)[C@H](NC(=O)[C@H](C)NC(=O)[C@H](NC(=O)[C@H](C)NC(=O)CNC(=O)[C@@H](NC=O)C(C)C)C(C)C)[C@H](C)O)C(C)C)C(C)C)C(C)C)C(C)C)C(=O)N[C@@H](Cc1c[nH]c2ccccc12)C(=O)NCCO [compound 13062] (For-VGA[dV]A[dT]V[dV]W[dV]W[dV]W[dL]W-NHCH2CH2OH),1.06,92.8%,-
CC(C)C[C@@H](NC(=O)[C@H](C)NC(=O)CNC(=O)[C@@H](NC=O)C(C)C)C(=O)N[C@@H](C)C(=O)N[C@H](CC(C)C)C(=O)N[C@H](C(=O)N[C@H](CC(C)C)C(=O)N[C@@H](Cc1c[nH]c2ccccc12)C(=O)N[C@H](CC(C)C)C(=O)N[C@@H](Cc1c[nH]c2ccccc12)C(=O)N[C@@H](C(=O)N[C@@H](Cc1c[nH]c2ccccc12)C(=O)N[C@H](CC(C)C)C(=O)N[C@@H](Cc1c[nH]c2ccccc12)C(=O)NCCO)C(C)C)C(C)C [compound 9473] (For-VGA[dL]A[dL]V[dL]W[dL]W[dV]W[dL]W-NHCH2CH2OH),1.04,0.0%,-
